From ChEMBL document CHEMBL6134859, “Unlocking the antiviral arsenal: Structure-guided optimization of small-molecule inhibitors against RSV and hCoV-229E” (Eur J Med Chem, 2025)
In brackets after ≈: the same amount, converted by molar mass.

Experiment: Kinetic solubility of the compound in 1%DMSO/PBS measured after 5 mins
Type: physicochemical
Conditions: read-out: Kinetic_solubility
`COc1ccc(C(C)=O)cc1COc1ncnc2c(-c3ccncc3)cccc12` showed a solubility kinetic at 5 min of 32 µM (≈ 12.3 µg/mL). `COc1ccc(C(C)=O)cc1COc1ncnc2cccc(Cl)c12` showed a solubility kinetic at 5 min of 54 µM (≈ 18.5 µg/mL). `COc1ccc(C(C)=O)cc1CNc1ncnc2c(Cl)cc(Cl)cc12` gave a solubility kinetic at 5 min of over 100 µM. For `COc1ccc(C(C)=O)cc1COc1ncnc2c(C)cccc12`, the solubility kinetic at 5 min was 57 µM (≈ 18.4 µg/mL). In the case of `Clc1cc(Cl)c2ncnc(OCc3ccc(Br)cc3)c2c1`, the solubility kinetic at 5 min is reported as 12 µM (≈ 4.61 µg/mL). For `COC(=O)c1ccccc1COc1ncnc2c(Cl)cc(Cl)cc12`, the solubility kinetic at 5 min was 22 µM (≈ 7.99 µg/mL). For `CCc1ccc(OC)c(COc2ncnc3c(Cl)cc(Cl)cc23)c1`, the solubility kinetic at 5 min was 34 µM (≈ 12.4 µg/mL). `COc1ccc(C(C)=O)cc1C(=O)Nc1ncnc2c(Cl)cc(Cl)cc12` showed a solubility kinetic at 5 min of over 100 µM. In the case of `COc1ccc(C(C)=O)cc1COc1ncnc2c(F)cccc12`, the solubility kinetic at 5 min is reported as over 100 µM. In the case of `COc1ccc(C(C)=O)cc1CSc1ncnc2c(Cl)cc(Cl)cc12`, the solubility kinetic at 5 min is reported as 17 µM (≈ 6.69 µg/mL). Work on `Clc1cc(Cl)c2ncnc(OCc3cccc4c3OCO4)c2c1` yielded a solubility kinetic at 5 min of 21 µM (≈ 7.33 µg/mL). Work on `O=C(O)c1cccc(COc2ncnc3c(Cl)cc(Cl)cc23)c1` yielded a solubility kinetic at 5 min of over 100 µM. For `COc1ccc(C(C)=O)cc1COc1ncnc2c(Cl)ccc(Cl)c12`, the solubility kinetic at 5 min was 37 µM (≈ 14 µg/mL). For `COc1cccc(COc2ncnc3c(Cl)cc(Cl)cc23)c1`, the solubility kinetic at 5 min was 22 µM (≈ 7.37 µg/mL). Compound `COc1ccc(C(C)=O)cc1COc1ncnc2c(S(C)(=O)=O)cccc12` has a solubility kinetic at 5 min of over 100 µM. Work on `COc1ccc(C(C)=O)cc1COc1ncnc2c(Br)cccc12` yielded a solubility kinetic at 5 min of 41 µM (≈ 15.9 µg/mL). Compound `COc1ccc(C(C)=O)cc1COc1ncnc2c(OCc3cc(C(C)=O)ccc3OC)cccc12` has a solubility kinetic at 5 min of 53 µM (≈ 25.8 µg/mL). For `Clc1cc(Cl)c2ncnc(OCc3ccccc3-c3ccccc3)c2c1`, the solubility kinetic at 5 min was 16 µM (≈ 6.1 µg/mL). In the case of `COc1ccc(C(C)=O)cc1COc1ncnc2ccc(Cl)cc12`, the solubility kinetic at 5 min is reported as 60 µM (≈ 20.6 µg/mL). For `COc1ccc(C(C)=O)cc1COc1ncnc2c(C#N)cccc12`, the solubility kinetic at 5 min was over 100 µM. Work on `Clc1cc(Cl)c2ncnc(OCc3ccccc3Br)c2c1` yielded a solubility kinetic at 5 min of 20 µM (≈ 7.68 µg/mL). Compound `COC(=O)c1cccc2c(OCc3cc(C(C)=O)ccc3OC)ncnc12` has a solubility kinetic at 5 min of over 100 µM. `COc1ccc(C(C)=O)cc1COc1ncnc2cc(Cl)ccc12` showed a solubility kinetic at 5 min of 26 µM (≈ 8.91 µg/mL). Work on `Clc1cc(Cl)c2ncnc(OCc3ccccc3-c3cccnc3)c2c1` yielded a solubility kinetic at 5 min of 60 µM (≈ 22.9 µg/mL). In the case of `O=C(O)c1ccccc1COc1ncnc2c(Cl)cc(Cl)cc12`, the solubility kinetic at 5 min is reported as over 100 µM. Work on `COc1ccc(C(C)=O)cc1COc1ncnc2c(-c3ccccc3)cccc12` yielded a solubility kinetic at 5 min of 35 µM (≈ 13.5 µg/mL). Compound `CC(=O)c1cccc(COc2ncnc3c(Cl)cc(Cl)cc23)c1` has a solubility kinetic at 5 min of 46 µM (≈ 16 µg/mL). Work on `COc1ccc(C(C)=O)cc1COc1ncnc2c(Cl)cc(C)cc12` yielded a solubility kinetic at 5 min of 66 µM (≈ 23.5 µg/mL). In the case of `O=C(O)c1ccc(COc2ncnc3c(Cl)cc(Cl)cc23)cc1`, the solubility kinetic at 5 min is reported as over 100 µM. For `COc1ccc(C(C)=O)cc1COc1ncnc2c(Cl)cc(Cl)cc12`, the solubility kinetic at 5 min was 62 µM (≈ 23.4 µg/mL). With `COCCOc1ccccc1COc1ncnc2c(Cl)cc(Cl)cc12` the solubility kinetic at 5 min was 42 µM (≈ 15.9 µg/mL). In the case of `COc1ccc(C(C)=O)cc1COc1ncnc2c(C)cc(C)cc12`, the solubility kinetic at 5 min is reported as over 100 µM. Compound `Cc1ccc(COc2ncnc3c(Cl)cc(Cl)cc23)cc1` has a solubility kinetic at 5 min of 12 µM (≈ 3.83 µg/mL). `COc1ccc(C(C)=O)cc1COc1ncnc2c(C)cc(Cl)cc12` gave a solubility kinetic at 5 min of 50 µM (≈ 17.8 µg/mL). For `Clc1ccc(COc2ncnc3c(Cl)cc(Cl)cc23)cc1`, the solubility kinetic at 5 min was 18 µM (≈ 6.11 µg/mL). With `CCc1ccccc1COc1ncnc2c(Cl)cc(Cl)cc12` the solubility kinetic at 5 min was 28 µM (≈ 9.33 µg/mL). `COc1ccc(C(C)=O)cc1COc1ncnc2c(C3CC3)cccc12` gave a solubility kinetic at 5 min of 27 µM (≈ 9.41 µg/mL). Work on `COc1cccc(OC)c1COc1ncnc2c(Cl)cc(Cl)cc12` yielded a solubility kinetic at 5 min of 21 µM (≈ 7.67 µg/mL). Work on `COc1cc(COc2ncnc3c(Cl)cc(Cl)cc23)cc(C(C)=O)c1` yielded a solubility kinetic at 5 min of 21 µM (≈ 7.92 µg/mL). In the case of `COc1ccc(C(C)=O)cc1COc1ncnc2c(N3CCOCC3)cccc12`, the solubility kinetic at 5 min is reported as over 100 µM. `COc1ccc(COc2ncnc3c(Cl)cc(Cl)cc23)cc1C(C)=O` gave a solubility kinetic at 5 min of 39 µM (≈ 14.7 µg/mL). `COc1ccc(C(C)=O)cc1COc1ncnc2cc(Cl)cc(Cl)c12` showed a solubility kinetic at 5 min of 41 µM (≈ 15.5 µg/mL). Work on `COc1ccc(C(C)=O)cc1COc1ncnc2c(O)cccc12` yielded a solubility kinetic at 5 min of 55 µM (≈ 17.8 µg/mL). For `Fc1ccc(COc2ncnc3c(Cl)cc(Cl)cc23)cc1`, the solubility kinetic at 5 min was 22 µM (≈ 7.11 µg/mL). Work on `COc1ccc(C(C)=O)cc1COc1ncnc2c(C(F)(F)F)cccc12` yielded a solubility kinetic at 5 min of 33 µM (≈ 12.4 µg/mL). In the case of `COc1cccc(C(C)=O)c1COc1ncnc2c(Cl)cc(Cl)cc12`, the solubility kinetic at 5 min is reported as 44 µM (≈ 16.6 µg/mL). `COc1ccc(COc2ncnc3c(Cl)cc(Cl)cc23)cc1` showed a solubility kinetic at 5 min of 44 µM (≈ 14.7 µg/mL). Compound `COc1cc(C(C)=O)ccc1COc1ncnc2c(Cl)cc(Cl)cc12` has a solubility kinetic at 5 min of 26 µM (≈ 9.81 µg/mL). `N#Cc1ccc(COc2ncnc3c(Cl)cc(Cl)cc23)cc1` gave a solubility kinetic at 5 min of 25 µM (≈ 8.25 µg/mL). For `CC(=O)c1ccc(-c2cccnc2)c(COc2ncnc3c(Cl)cc(Cl)cc23)c1`, the solubility kinetic at 5 min was over 100 µM. With `COc1ccc(C(C)=O)cc1COc1ncnc2c(Cl)cccc12` the solubility kinetic at 5 min was 58 µM (≈ 19.9 µg/mL). In the case of `COc1ccc(C(C)=O)cc1COc1ncnc2c(OC)cccc12`, the solubility kinetic at 5 min is reported as over 100 µM. With `Fc1ccccc1COc1ncnc2c(Cl)cc(Cl)cc12` the solubility kinetic at 5 min was 26 µM (≈ 8.4 µg/mL). For `Clc1cc(Cl)c2ncnc(OCc3ccccc3)c2c1`, the solubility kinetic at 5 min was 25 µM (≈ 7.63 µg/mL). In the case of `COC(=O)c1ccc(COc2ncnc3c(Cl)cc(Cl)cc23)cc1`, the solubility kinetic at 5 min is reported as 25 µM (≈ 9.08 µg/mL). Compound `COc1c(COc2ncnc3c(Cl)cc(Cl)cc23)cccc1C(C)=O` has a solubility kinetic at 5 min of 57 µM (≈ 21.5 µg/mL). Compound `COc1ccccc1COc1ncnc2c(Cl)cc(Cl)cc12` has a solubility kinetic at 5 min of 32 µM (≈ 10.7 µg/mL). Compound `CCc1ccc(C(C)=O)cc1COc1ncnc2c(Cl)cc(Cl)cc12` has a solubility kinetic at 5 min of 21 µM (≈ 7.88 µg/mL). Compound `FC(F)(F)c1ccc(COc2ncnc3c(Cl)cc(Cl)cc23)cc1` has a solubility kinetic at 5 min of 18 µM (≈ 6.72 µg/mL). Work on `COc1ccccc1CSc1ncnc2c(Cl)cc(Cl)cc12` yielded a solubility kinetic at 5 min of 24 µM (≈ 8.43 µg/mL). Work on `CC(=O)c1ccccc1COc1ncnc2c(Cl)cc(Cl)cc12` yielded a solubility kinetic at 5 min of 43 µM (≈ 14.9 µg/mL).
